Reference: ChEMBL document CHEMBL1156829 (Proc Natl Acad Sci U S A, 2008)

Key:
[1] = NOVARTIS: Cytotoxicity against human hepatocellular carcinoma cell line (Huh7); assay type: toxicity, cell-based, Huh-7; settings: Huh7 cells (hepatocellular carcinoma cell line)
[2] = tested on: Plasmodium falciparum; test: NOVARTIS: Inhibition of Plasmodium falciparum W2 (drug-resistant) proliferation in erythrocyte-based infection assay; assay type: functional, organism-based
[3] = tested on: Plasmodium falciparum; test: NOVARTIS: Inhibition of Plasmodium falciparum 3D7 (drug-susceptible) proliferation in erythrocyte-based infection assay; assay type: functional, organism-based; settings: Plasmodium falciparum, 3D7
[4] = Plasmodium falciparum, W2, read-out: EC50

SMILES | CC50 [1] | EC50 [2, 4] | EC50 [3] | EC50 [2]
CC(C)c1cccc(C(C)C)c1NC(=O)N(Cc1ccccc1)C(C)c1nc2ccccc2c(=O)n1-c1ccc(Cl)cc1 (configuration not stated) | > 1.46 µM | 1.02 µM | 0.985 µM | –
COC1=C(Nc2cccc(C(F)(F)F)c2)C(=O)c2ccccc2C1=O | > 100 µM | 0.114 µM | 0.263 µM | –
OC(COc1ccc(OCC(O)CN2CCN(C3c4ccccc4-c4ccccc43)CC2)cc1)CN1CCN(C2c3ccccc3-c3ccccc32)CC1 (configuration not stated) | > 100 µM | > 12.5 µM | > 6.19 µM | –
Fc1ccc(CN2CCc3nc(N4CCCCC4)sc3C2)cc1F | > 100 µM | 1.07 µM | 1.1 µM | –
Cc1cc(C)c(S(=O)(=O)N2CCC(NC(=O)c3ccccc3)CC2)c(C)c1 | > 100 µM | – | 1.07 µM | No fit
Cc1c(C(=O)N2CCC3(CCN(C)C3)C2)cnn1-c1ncc2c(n1)-c1ccccc1SC2 (configuration not stated) | > 10 µM | 0.603 µM | 1.56 µM | –
CCOC(=O)C1=C(C)NC2=C(C(=O)CC(c3ccc(OC)c(OC)c3)C2)C1c1ccccc1Br (configuration not stated) | > 100 µM | 0.0267 µM | 0.0732 µM | –
CCC1(C)CC(CCNCc2ccccc2O)(c2ccc(OC)cc2)CCO1 (configuration not stated) | 21.4 µM | 0.0765 µM | 0.455 µM | –
CC[n+]1c(/C=C/C=C2\N(C)c3ccccc3C2(C)C)n(-c2ccccc2)c2ccc(Cl)cc21 | > 10 µM | > 1.22 µM | > 1.5 µM | –
CCC(C(=O)N1CCN(Cc2ccccc2)CC1)c1ccccc1 (configuration not stated) | > 100 µM | 0.677 µM | 6.91 µM | –
COc1ccc2nc(C)cc(NN=Cc3cccs3)c2c1 | 18.4 µM | 0.134 µM | 0.158 µM | –
CCC(Sc1nc2ccccc2n1C(C)=O)C(=O)NC1=NN=C(c2ccc(Br)cc2)CS1 (configuration not stated) | 46.7 µM | 0.543 µM | 0.549 µM | –
CCCCCN(C(=O)c1ccc(C(C)(C)C)cc1)C(CC)c1nc2ccccc2c(=O)n1-c1ccccc1OC (configuration not stated) | > 10 µM | > 1.25 µM | > 0.117 µM | –
CC1=C(C(=O)OC2CCCC2)C(c2ccccc2F)C2=C(CC(c3ccccc3)CC2=O)N1 (configuration not stated) | > 100 µM | 0.259 µM | 0.541 µM | –
CCCCCSc1scc(-c2ccc(O)c(O)c2)[n+]1C | > 100 µM | 0.313 µM | 0.254 µM | –
C=CC[N+]1(CC#Cc2cccc3ccccc23)CCCCC1 | > 100 µM | 0.396 µM | 0.683 µM | –
O=C(NCc1ccccc1)c1cnc(NCCCn2ccnc2)nc1NCCc1ccccc1 | 12.8 µM | 0.32 µM | 0.205 µM | –
O=C1CN(C(=O)CC2CCCCC2)C(c2ccccc2)c2cc(Cl)ccc2N1 (configuration not stated) | 46.3 µM | 4.57 µM | 7.61 µM | –
CN(C)c1ccc(N=Cc2ccc(N3CCOCC3)cc2)cc1 | > 10 µM | 0.235 µM | 0.175 µM | –
CCOCCCNC(=O)c1cc(NC(=O)c2ccc(Cl)c([N+](=O)[O-])c2)ccc1N1CCCCC1 | 1.43 µM | 0.077 µM | > 1.25 µM | –
COc1cc(C=CC(=O)Nc2ccc3nc(N4CCN(c5ncccn5)CC4)cc(C)c3c2)cc(OC)c1OC | 7.42 µM | 0.505 µM | 0.841 µM | –
COC(=O)C(C)NC(=O)c1ccc(F)cc1 (configuration not stated) | > 10 µM | 0.681 µM | > 1.25 µM | –
c1ccc2c(NCCc3c[nH]cn3)c3ccccc3nc2c1 | 23.3 µM | 2.46 µM | 1.73 µM | –
COc1ccccc1Nc1nc2cc([N+](=O)[O-])c([N+](=O)[O-])cc2nc1Nc1cccc(Cl)c1 | > 10 µM | 0.0822 µM | > 1.25 µM | –
O=C(CSc1oc(-c2ccc(Cl)cc2)nc1[P+](c1ccccc1)(c1ccccc1)c1ccccc1)c1ccccc1 | > 10 µM | > 1.18 µM | 0.851 µM | –

SMILES | CC50 [1] | EC50 [2, 4] | EC50 [3] | EC50 [2]
CC(C)CC1=Nc2cc(C(=O)NC(C)C)ccc2CN1Cc1ccccc1 | > 10 µM | > 1.25 µM | > 1.03 µM | –
CCCCc1ccc(C(=O)N(CCC(=O)Nc2nnc(-c3ccc(OC)cc3)s2)CCc2ccc(OC)c(OC)c2)cc1 | > 10 µM | > 0.757 µM | 1.24 µM | –
O=C(NC1CC1)c1ccc(OC2CCN(CC3CCCCC3)CC2)c(Cl)c1 | 22.6 µM | 0.0503 µM | 0.119 µM | –
O=C(c1ccc([N+](=O)[O-])cc1)c1ccc(N2CCOCC2)c([N+](=O)[O-])c1 | > 100 µM | 2.73 µM | 4.2 µM | –
O=C(Cn1c(=O)oc2cc(Cl)ccc21)c1ccccc1 | 28.4 µM | 4.5 µM | > 12.5 µM | –
CC(=O)N(C1=C(N(C)C)C(=O)c2ccccc2C1=O)c1ccc(Cl)cc1 | 5.46 µM | 0.0691 µM | 0.0314 µM | –
COc1cc(NC(C)CCCN(Cc2ccccc2OC)C(=O)C(Cl)Cl)c2ncccc2c1 (configuration not stated) | > 10 µM | 0.554 µM | > 1.5 µM | –
Cc1ccc(N2CCN(CCNCc3ccc(F)cc3)[C@@H](Cc3ccc(O)cc3)C2)cc1 | > 10 µM | 0.24 µM | 0.443 µM | –
O=C(COc1cccc(Br)c1)NN=Cc1ccccc1F | > 10 µM | > 1.19 µM | > 1.25 µM | –
Cc1ccccc1[S+]([O-])Cc1ccc(C(=O)N2CCN(c3ccccn3)CC2)o1 (configuration not stated) | > 42 µM | 1.66 µM | > 7.13 µM | –
c1ccc2nc3c(nnc4ccccc43)nc2c1 | 28.5 µM | 0.996 µM | 1.1 µM | –
O=C(O)CCNc1ccccc1[N+](=O)[O-] | > 100 µM | > 4.31 µM | > 8.54 µM | –
COc1ccc2nc(C)cc(Nc3ccc(Br)cc3)c2c1 | 19.7 µM | 0.369 µM | 0.201 µM | –
COc1ccccc1C(c1c(C)n[nH]c1O)c1c(C)n[nH]c1O | > 10 µM | > 1.1 µM | > 1.25 µM | –
CCN1CCN(c2cc(C)c3cc(NC(=O)C=Cc4ccc(OC)cc4)ccc3n2)CC1 | > 100 µM | 2.75 µM | 2.02 µM | –
CCN1/C(=C/c2sc3cc(OC)c(OC)cc3[n+]2CC)C=Cc2ccccc21 | > 10 µM | 0.104 µM | 0.136 µM | –
COc1nc(NC(=N)N)nc2ccc(C)cc12 | 58 µM | 0.608 µM | 0.88 µM | –
CC=C[C@H]1O[C@@](O)([C@H](C)C(O)C(C)[C@@H]2OC(=O)C(OC)=CC(C)=C[C@H](C)[C@H](O)[C@H](CC)[C@H](O)C(C)CC(C)=CC=C[C@H]2OC)C[C@@H](O[C@@H]2C[C@H](O)[C@@H](OC(N)=O)[C@H](C)O2)[C@@H]1C (some centres not stated) | > 10 µM | < 0.0186 µM | > 0.503 µM | –
CC(=O)c1ccc(OCc2cc(C(=O)N3CCCCC3c3cccnc3)no2)cc1 (configuration not stated) | > 100 µM | 1.37 µM | 4.21 µM | –
COc1cc2c(cc1O)CC[n+]1cc3c(OC)c(OC)ccc3cc1-2 [JATRORRHIZINE CHLORIDE] | 8.94 µM | 1.66 µM | 0.939 µM | –
Cc1ccccc1N=Nc1ccc(NC(=O)c2ccco2)c(C)c1 | 72.2 µM | 0.272 µM | 0.402 µM | –
FC(F)(F)c1cccc(C=NNc2nc3ccccc3[nH]2)c1 | 63.2 µM | 0.115 µM | 0.0946 µM | –
COc1ccc(C(c2ccc(N(C)C)cc2)c2ccc(N(C)C)cc2)cc1 | > 100 µM | 0.277 µM | 0.353 µM | –
COc1ccc(OC)c(NC(=O)COc2cc3ccccc3cc2C(=O)Nc2cc(OC)c(Cl)cc2OC)c1 | > 100 µM | 0.782 µM | 1.15 µM | –
